Measurements as given in paper PMC3320615, “β-Microseminoprotein Endows Post Coital Seminal Plasma with Potent Candidacidal Activity by a Calcium- and pH-Dependent Mechanism” (PLoS Pathogens, 2012).

How the values were obtained:
[1] = Liposome leakage (carboxyfluorescein release); assay type: biochemical; conditions: % ± SD of leakage with Triton X-100, CF fluorescence 520 nm, 37°C, at least triplicate
Protocol: Subsequently, buffer (10 mM Tris, pH 7.4) was added together with 0.1 M carboxyfluorescein (CF) (Sigma, St Louis, MO). After hydration, the lipid mixture was subjected to eight freeze-thaw cycles consisting of freezing in liquid nitrogen and heating to 60°C. Unilamellar liposomes of about Ø140 nm were generated by multiple extrusions through polycarbonate filters (pore size 100 nm) mounted in a […] (Avestin, Ottawa, Canada) at 22°C. Untrapped CF was then removed by two gel filtrations (Sephadex G-50) at 22°C, with Tris buffer as eluent. CF release was determined by monitoring the emitted fluorescence at 520 nm from liposome dispersions (10 mM lipid in 10 mM Tris). An absolute leakage scale was obtained by disrupting the liposomes at the end of the experiment through addition of 0.8 mM Triton X100 (Sigma, St Louis, MO), causing 100% release and dequenching of CF. Although calcein is frequently used for pH-dependent leakage studies, the high charge of this dye has been noted to influence its leakage behavior in the presence of highly cationic peptides. Instead, therefore, CF was used as a leakage marker at both pH 6.0 and 7.4, avoiding pH-dependent fluorescence effects through neutralization prior to probing the limiting leakage in case of pH 6.0 leakage. Throughout, a SPEX-fluorolog 1650 0.22-m double spectrometer (SPEX Industries, Edison, NJ) was used for the liposome leakage assay. Measurements were performed in at least triplicate at 37°C.

[2] = system: Candida albicans ATCC 90028; experiment: CFU assay with C. albicans; assay type: cell-based; conditions: for Estimate (difference between means of log values): control - treatment
Source text: Candida albicans strains: ATCC 90028, CAF-1-2, SC5814, BM4f35II68, vaginal clinical isolates from Dept. of Clincal Microbiology, Skåne University Hospital, SO_303369 and SO_503471. Candida parapsilosis strains: ATCC 90018, BD1800, BD17837, and BM24/68/09. Candida glabrata strains: ATCC 90030, clinical isolates from Dept. of Clincal Microbiology, Skåne University Hospital, SO_3336, SO_3400 and SO_503413. All strains were inoculated from frozen culture and grown in Yeast extract-Peptone-Dextrose (YPD) (Sigma) and on Sabourand Dextrose Broth (SAB) (Difco) plates at 30°C with 5% (v/v) CO2. If not otherwise stated, ATCC 90028 was used for candidacidal experiments.
Candida albicans was grown over night, washed, and resuspended in 10 mM Tris, 5 mM glucose, pH 7.4 or pH 4. Approximately 4×10^3 to 10^4 CFU of C. albicans were incubated with the test substance in low or neutral pH buffer for 4 h at 37°C. After incubation, the suspension was diluted and plated. Colonies were counted after two days incubation of the plates at 30°C. Bacteria from overnight cultures were inoculated in fresh medium and grown for 3 h, washed in 10 mM Tris, 5 mM glucose pH 7.4. Approximately 8×10^4 CFU were incubated with sample in 10 mM Tris, 5 mM glucose pH 7.4 or pH 4 for 1 h at 37°C, diluted, plated and incubated over night at 37°C and the colonies counted.
Statistical analysis was performed using SAS 9.2 software (SAS Institute, Cary, NC). Colony counts were log transformed. In order to choose the statistical method, interactions between the Treatment and Experiment were investigated. Treatments were screened by doing pair wise comparisons of each treatment to a control. Statistical tests used for the comparisons included MIXED procedure and LSMEANS statement. All tests where P-value<.05 were considered to indicate statistical significance. P-values were not adjusted for the multiple comparisons.
“Estimate” is the estimate of the difference between means of log values of treatment 1 and treatment 2

For “RIFKKEDCKYI [MSP66–76, eleven residues at the very tip of the loop (residue 66–76)]”, the Liposome leakage ([1]; pH 6.0, +EDTA, DOPC/ergosterol liposomes) was 41±9%, the Liposome leakage ([1]; pH 6.0, without EDTA, DOPC/ergosterol liposomes) was 31±6% and the Liposome leakage ([1]; pH 7.4, +EDTA) was 16±7%. The Liposome leakage ([1]; pH 7.4, without EDTA) was 29±6%, the “Estimate (difference between means of log values)” value ([2]; 50 µM + 50 µM EDTA, pH 7.4, + 50 µM calcium chloride, experiment 1) was 0.4123 and the “Estimate (difference between means of log values)” value ([2]; 50 µM + 50 µM EDTA, pH 7.4, + 50 µM calcium chloride, experiment 2) was -0.3545. The “Estimate (difference between means of log values)” value ([2]; 50 µM + 50 µM EDTA, pH 7.4, + 50 µM calcium chloride, experiment 3) was -0.7827, the “Estimate (difference between means of log values)” value ([2]; 50 µM + 50 µM EDTA, pH 7.4, + 50 µM calcium chloride, experiment 4) was 0.2633 and the “Estimate (difference between means of log values)” value ([2]; 50 µM + 50 µM EDTA, pH 7.4, + 50 µM calcium chloride, experiment 5) was 0.02251. The “Estimate (difference between means of log values)” value ([2]; 50 µM + 50 µM EDTA, pH 7.4, + 75 µM calcium chloride, experiment 1) was 0.2228, the “Estimate (difference between means of log values)” value ([2]; 50 µM + 50 µM EDTA, pH 7.4, + 75 µM calcium chloride, experiment 2) was -0.4921 and the “Estimate (difference between means of log values)” value ([2]; 50 µM + 50 µM EDTA, pH 7.4, + 75 µM calcium chloride, experiment 3) was -0.1876. The “Estimate (difference between means of log values)” value ([2]; 50 µM + 50 µM EDTA, pH 7.4, + 75 µM calcium chloride, experiment 4) was -0.2469, the “Estimate (difference between means of log values)” value ([2]; 50 µM + 50 µM EDTA, pH 7.4, + 75 µM calcium chloride, experiment 5) was -0.2312 and the “Estimate (difference between means of log values)” value ([2]; 50 µM + 50 µM EDTA, pH 7.4, + 100 µM calcium chloride, experiment 1) was 0.07455. The “Estimate (difference between means of log values)” value ([2]; 50 µM + 50 µM EDTA, pH 7.4, + 100 µM calcium chloride, experiment 2) was -0.1459, the “Estimate (difference between means of log values)” value ([2]; 50 µM + 50 µM EDTA, pH 7.4, + 100 µM calcium chloride, experiment 3) was -0.4793 and the “Estimate (difference between means of log values)” value ([2]; 50 µM + 50 µM EDTA, pH 7.4, + 100 µM calcium chloride, experiment 4) was -0.1979. The “Estimate (difference between means of log values)” value ([2]; 50 µM + 50 µM EDTA, pH 7.4, + 100 µM calcium chloride, experiment 5) was -0.3209, the “Estimate (difference between means of log values)” value ([2]; 50 µM + 50 µM EDTA, pH 7.4, + 200 µM calcium chloride, experiment 1) was 0.4296 and the “Estimate (difference between means of log values)” value ([2]; 50 µM + 50 µM EDTA, pH 7.4, + 200 µM calcium chloride, experiment 2) was -0.6341. For the same sequence, the “Estimate (difference between means of log values)” value ([2]; 50 µM + 50 µM EDTA, pH 7.4, + 200 µM calcium chloride, experiment 3) was -0.7050, the “Estimate (difference between means of log values)” value ([2]; 50 µM + 50 µM EDTA, pH 7.4, + 200 µM calcium chloride, experiment 4) was -0.2560 and the “Estimate (difference between means of log values)” value ([2]; 50 µM + 50 µM EDTA, pH 7.4, + 200 µM calcium chloride, experiment 5) was 0.04894. For the same sequence, the “Estimate (difference between means of log values)” value ([2]; 50 µM + 50 µM EDTA, pH 7.4, no calcium, experiment 1) was 5.2769, the “Estimate (difference between means of log values)” value ([2]; 50 µM + 50 µM EDTA, pH 7.4, no calcium, experiment 2) was 4.2266 and the “Estimate (difference between means of log values)” value ([2]; 50 µM + 50 µM EDTA, pH 7.4, no calcium, experiment 3) was 2.8351. For the same sequence, the “Estimate (difference between means of log values)” value ([2]; 50 µM + 50 µM EDTA, pH 7.4, no calcium, experiment 4) was 4.2317, the “Estimate (difference between means of log values)” value ([2]; 50 µM + 50 µM EDTA, pH 7.4, no calcium, experiment 5) was 5.0824 and the “Estimate (difference between means of log values)” value ([2]; 50 µM, no EDTA, pH 4, + 50 µM calcium chloride, experiment 1) was 2.5872. For the same sequence, the “Estimate (difference between means of log values)” value ([2]; 50 µM, no EDTA, pH 4, + 50 µM calcium chloride, experiment 2) was 2.7886, the “Estimate (difference between means of log values)” value ([2]; 50 µM, no EDTA, pH 4, + 50 µM calcium chloride, experiment 3) was 1.3256 and the “Estimate (difference between means of log values)” value ([2]; 50 µM, no EDTA, pH 4, + 50 µM calcium chloride, experiment 4) was 2.0744. The “Estimate (difference between means of log values)” value ([2]; 50 µM, no EDTA, pH 4, + 50 µM calcium chloride, experiment 5) was 1.7552, the “Estimate (difference between means of log values)” value ([2]; 50 µM, no EDTA, pH 4, + 75 µM calcium chloride, experiment 1) was 2.5170 and the “Estimate (difference between means of log values)” value ([2]; 50 µM, no EDTA, pH 4, + 75 µM calcium chloride, experiment 2) was 1.9220. The “Estimate (difference between means of log values)” value ([2]; 50 µM, no EDTA, pH 4, + 75 µM calcium chloride, experiment 3) was -0.3426, the “Estimate (difference between means of log values)” value ([2]; 50 µM, no EDTA, pH 4, + 75 µM calcium chloride, experiment 4) was 1.5746 and the “Estimate (difference between means of log values)” value ([2]; 50 µM, no EDTA, pH 4, + 75 µM calcium chloride, experiment 5) was 1.0684. For the same sequence, the “Estimate (difference between means of log values)” value ([2]; 50 µM, no EDTA, pH 4, + 100 µM calcium chloride, experiment 1) was 0.6973, the “Estimate (difference between means of log values)” value ([2]; 50 µM, no EDTA, pH 4, + 100 µM calcium chloride, experiment 2) was 1.1772 and the “Estimate (difference between means of log values)” value ([2]; 50 µM, no EDTA, pH 4, + 100 µM calcium chloride, experiment 3) was 0.01412. For the same sequence, the “Estimate (difference between means of log values)” value ([2]; 50 µM, no EDTA, pH 4, + 100 µM calcium chloride, experiment 4) was 1.0688, the “Estimate (difference between means of log values)” value ([2]; 50 µM, no EDTA, pH 4, + 100 µM calcium chloride, experiment 5) was 0.1005 and the “Estimate (difference between means of log values)” value ([2]; 50 µM, no EDTA, pH 4, + 200 µM calcium chloride, experiment 1) was 1.0661. The “Estimate (difference between means of log values)” value ([2]; 50 µM, no EDTA, pH 4, + 200 µM calcium chloride, experiment 2) was 0.6082, the “Estimate (difference between means of log values)” value ([2]; 50 µM, no EDTA, pH 4, + 200 µM calcium chloride, experiment 3) was -0.8572 and the “Estimate (difference between means of log values)” value ([2]; 50 µM, no EDTA, pH 4, + 200 µM calcium chloride, experiment 4) was 0.6184. For the same sequence, the “Estimate (difference between means of log values)” value ([2]; 50 µM, no EDTA, pH 4, + 200 µM calcium chloride, experiment 5) was -1.1924, the “Estimate (difference between means of log values)” value ([2]; 50 µM, no EDTA, pH 4, no calcium, experiment 1) was 5.4425 and the “Estimate (difference between means of log values)” value ([2]; 50 µM, no EDTA, pH 4, no calcium, experiment 2) was 4.7863. For the same sequence, the “Estimate (difference between means of log values)” value ([2]; 50 µM, no EDTA, pH 4, no calcium, experiment 3) was 3.5454, the “Estimate (difference between means of log values)” value ([2]; 50 µM, no EDTA, pH 4, no calcium, experiment 4) was 4.0909 and the “Estimate (difference between means of log values)” value ([2]; 50 µM, no EDTA, pH 4, no calcium, experiment 5) was 3.8004. For the same sequence, the “Estimate (difference between means of log values)” value ([2]; 140 µM + 0.5 mM calcium, pH 4, experiment 1) was 1.0371, the “Estimate (difference between means of log values)” value ([2]; 140 µM + 0.5 mM calcium, pH 4, experiment 2) was 0.7970 and the “Estimate (difference between means of log values)” value ([2]; 140 µM + 0.5 mM calcium, pH 4, experiment 3) was -0.5619. The “Estimate (difference between means of log values)” value ([2]; 140 µM + 0.5 mM calcium, pH 4, experiment 4) was 0.4135, the “Estimate (difference between means of log values)” value ([2]; 140 µM + 0.5 mM magnesium, pH 4, experiment 1) was 5.4081 and the “Estimate (difference between means of log values)” value ([2]; 140 µM + 0.5 mM magnesium, pH 4, experiment 2) was 4.1263. The “Estimate (difference between means of log values)” value ([2]; 140 µM + 0.5 mM magnesium, pH 4, experiment 3) was 2.8985, the “Estimate (difference between means of log values)” value ([2]; 140 µM + 0.5 mM magnesium, pH 4, experiment 4) was 5.0596 and the “Estimate (difference between means of log values)” value ([2]; 140 µM, pH 4, experiment 1) was 5.5432. The “Estimate (difference between means of log values)” value ([2]; 140 µM, pH 4, experiment 2) was 4.1263, the “Estimate (difference between means of log values)” value ([2]; 140 µM, pH 4, experiment 3) was 2.8985 and the “Estimate (difference between means of log values)” value ([2]; 140 µM, pH 4, experiment 4) was 4.7326. The “Calcium concentration that completely inhibited the antifungal activity” value ([2]; neutral pH (MSP66–76 with equimolar EDTA)) was 50 µM.
